For 15 compounds, T/C results are on record in PubChem BioAssay AID248 (DTP/NCI, 2004).

Values joined by “and” are separate entries in the source; they are usually repeats but may differ in a detail not shown here. Equal entries are not always repeated. Toxic doses and inconclusive results are not listed.

The test has as its system L1210 leukemia ip in BDF1 mice, survival T/C. The test is described as follows: NCI In Vivo Anticancer Drug Screen. Data for tumor model L1210 Leukemia (intraperitoneal) in B6D2F1 (BDF1) mice. The conditions noted are these: endpoint: mean survival time, higher = longer survival. The essentials:
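Each compound was tested against a transplantable tumor grown in mice. The endpoint was survival, with treated animals benchmarked against vehicle controls as a simple ratio.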

Where [1] appears, read: dose: 100.0 mg/kg/injection, schedule: Q04DX003 (ip), vehicle: Klucel (hydroxypropylcellulose) (HPC).
Where [2] appears, read: dose: 200.0 mg/kg/injection, schedule: Q04DX003 (ip), vehicle: Klucel (hydroxypropylcellulose) (HPC).
The mark [3] stands for this setting: dose: 400.0 mg/kg/injection, schedule: Q04DX003 (ip), vehicle: Klucel (hydroxypropylcellulose) (HPC).
Where [4] appears, read: dose: 100.0 mg/kg/injection, schedule: Q01DX009 (ip), vehicle: saline.
Where [5] appears, read: dose: 100.0 mg/kg/injection, schedule: Q04DX003 (ip), vehicle: saline with Tween-80.
Setting [6] is: dose: 100.0 mg/kg/injection, schedule: Q04DX003 (ip), vehicle: saline.
[7] abbreviates: dose: 25.0 mg/kg/injection, schedule: Q04DX003 (ip), vehicle: Klucel (hydroxypropylcellulose) (HPC).
Setting [8] is: dose: 50.0 mg/kg/injection, schedule: Q04DX003 (ip), vehicle: Klucel (hydroxypropylcellulose) (HPC).
Setting [9] is: dose: 400.0 mg/kg/injection, schedule: Q04DX003 (ip), vehicle: saline with Tween-80.
Where [10] appears, read: dose: 200.0 mg/kg/injection, schedule: Q04DX003 (ip), vehicle: saline with Tween-80.

On to `O=C1OC(=O)c2ccc([N+](=O)[O-])c3c(C(=O)O)ccc1c23`, for which the T/C (dose: 50.0 mg/kg/injection, schedule: Q01DX001 (ip), vehicle: saline) is 101 % of control; the T/C (dose: 100.0 mg/kg/injection, schedule: Q01DX001 (ip), vehicle: saline) was 104 % of control; the T/C (dose: 200.0 mg/kg/injection, schedule: Q01DX001 (ip), vehicle: saline) is 104 % of control; the T/C (dose: 400.0 mg/kg/injection, schedule: Q01DX001 (ip), vehicle: saline) was 104 % of control.

In the case of `CC1(C)CN1C1=C(NC(=O)CCl)C(=O)c2ccccc2C1=O`, the T/C is 87 % of control under setting [1], 94 % of control under setting [2] and 91 % of control under setting [3].

Take `CCc1nc(N)nc(-c2ccccc2)c1-c1ccc([N+](=O)[O-])cc1O`: the T/C under setting [1] was 98 % of control, the T/C under setting [2] is 95 % of control and the T/C under setting [3] is 97 % of control.

For `Cc1c(C(N)=O)no[n+]1[O-]`, the T/C is 87 % of control (dose: 100.0 mg/kg/injection, schedule: Q04DX002 (ip), vehicle: Klucel (hydroxypropylcellulose) (HPC)) and 109 % of control (dose: 200.0 mg/kg/injection, schedule: Q04DX002 (ip), vehicle: Klucel (hydroxypropylcellulose) (HPC)).

For the compound `CN(C)CC/C=C1\c2ccccc2CN(C)c2ccccc21`, the T/C by setting is: (dose: 6.25 mg/kg/injection, schedule: Q01DX009 (ip), vehicle: saline with Tween-80) 94 % of control; (dose: 6.25 mg/kg/injection, schedule: Q01DX009 (ip), vehicle: saline) 108 % of control; (dose: 12.5 mg/kg/injection, schedule: Q01DX009 (ip), vehicle: saline with Tween-80) 104 % of control; (dose: 12.5 mg/kg/injection, schedule: Q01DX009 (ip), vehicle: saline) 107 % of control; (dose: 25.0 mg/kg/injection, schedule: Q01DX009 (ip), vehicle: saline with Tween-80) 88 % of control; (dose: 25.0 mg/kg/injection, schedule: Q01DX009 (ip), vehicle: saline) 94 % of control. The T/C reads like this: (dose: 25.0 mg/kg/injection, schedule: Q04DX003 (ip), vehicle: saline with Tween-80) 88 % of control; (dose: 25.0 mg/kg/injection, schedule: Q04DX003 (ip), vehicle: saline) 97 % of control; (dose: 50.0 mg/kg/injection, schedule: Q01DX009 (ip), vehicle: saline) 94 % of control; (dose: 50.0 mg/kg/injection, schedule: Q04DX003 (ip), vehicle: saline with Tween-80) 96 % of control; (dose: 50.0 mg/kg/injection, schedule: Q04DX003 (ip), vehicle: saline) 97 % of control; under setting [4], 105 % of control. Also, the T/C reads like this: under setting [5], 94 % of control; under setting [6], 101 % of control.

Take `COC(=O)[C@H]1[C@H]2C[C@@H]3c4[nH]c5cc(OC)ccc5c4CCN3C[C@H]2C[C@@H](OC(=O)/C=C/c2cc(OC)c(OC)c(OC)c2)[C@@H]1OC`: the T/C runs as follows: (dose: 3.12 mg/kg/injection, schedule: Q01DX009 (ip), vehicle: Klucel (hydroxypropylcellulose) (HPC)) 96 % of control; (dose: 6.25 mg/kg/injection, schedule: Q01DX009 (ip), vehicle: Klucel (hydroxypropylcellulose) (HPC)) 96 % of control; (dose: 12.5 mg/kg/injection, schedule: Q01DX009 (ip), vehicle: Klucel (hydroxypropylcellulose) (HPC)) 105 % of control; (dose: 25.0 mg/kg/injection, schedule: Q01DX009 (ip), vehicle: Klucel (hydroxypropylcellulose) (HPC)) 96 % of control; under setting [7], 111 % of control; (dose: 50.0 mg/kg/injection, schedule: Q01DX009 (ip), vehicle: Klucel (hydroxypropylcellulose) (HPC)) 100 % of control. The T/C under setting [8] was 103 % of control.

`O=C(Nc1ccc(Cl)cc1)OCC#CCOC(=O)Nc1ccc(Cl)cc1`: the T/C reads like this: (dose: 75.0 mg/kg/injection, schedule: Q04DX003 (ip), vehicle: Klucel (hydroxypropylcellulose) (HPC)) 93 % of control; (dose: 100.0 mg/kg/injection, schedule: Q01DX001 (ip), vehicle: saline with Tween-80) 90 % of control; under setting [5], 88 % of control; (dose: 150.0 mg/kg/injection, schedule: Q04DX003 (ip), vehicle: Klucel (hydroxypropylcellulose) (HPC)) 93 % of control; (dose: 200.0 mg/kg/injection, schedule: Q01DX001 (ip), vehicle: saline with Tween-80) 88 % of control; (dose: 300.0 mg/kg/injection, schedule: Q04DX003 (ip), vehicle: Klucel (hydroxypropylcellulose) (HPC)) 98 % of control. Further, the T/C (dose: 400.0 mg/kg/injection, schedule: Q01DX001 (ip), vehicle: saline with Tween-80) was 90 % of control and the T/C under setting [9] was 90 % of control.

For the compound `CN1C2CC(OC3CCCCO3)C(C2)N1C` (centres undefined), the T/C (dose: 100.0 mg/kg/injection, schedule: Q01DX009 (ip), vehicle: saline with Tween-80) is 95 % of control; the T/C under setting [5] is 94 % of control; the T/C (dose: 132.0 mg/kg/injection, schedule: Q04DX003 (ip), vehicle: saline with Tween-80) was 100 % of control; the T/C (dose: 200.0 mg/kg/injection, schedule: Q01DX009 (ip), vehicle: saline with Tween-80) is 100 % of control; the T/C under setting [10] is 102 % of control; the T/C (dose: 300.0 mg/kg/injection, schedule: Q04DX003 (ip), vehicle: saline with Tween-80) was 117 % of control. Also, the T/C is 93 % of control (dose: 400.0 mg/kg/injection, schedule: Q01DX009 (ip), vehicle: saline with Tween-80) and 102 % of control under setting [9].

On to `NC(=O)c1ccc[n+](CC(=O)NCc2ccccc2)c1`, for which the T/C reads like this: under setting [6], 96 % of control; (dose: 200.0 mg/kg/injection, schedule: Q04DX003 (ip), vehicle: saline) 93 % of control.

`C/C(=N\OCc1cc2c(cc1Cl)OCO2)C(=O)O`: the T/C by setting is: under setting [5], 100 % of control; under setting [10], 99 % of control; under setting [9], 91 % of control.

Regarding `CC(C)(Cl)/N=N/C(C)(C)Cl`, the T/C is, setting by setting: (dose: 25.0 mg/kg/injection, schedule: Q01DX001 (ip), vehicle: Klucel (hydroxypropylcellulose) (HPC)) 99 % of control; under setting [7], 98 % of control; (dose: 50.0 mg/kg/injection, schedule: Q01DX001 (ip), vehicle: Klucel (hydroxypropylcellulose) (HPC)) 92 % of control; under setting [8], 97 % of control; (dose: 100.0 mg/kg/injection, schedule: Q01DX001 (ip), vehicle: Klucel (hydroxypropylcellulose) (HPC)) 94 % of control and 95 % of control; under setting [1], 98 % of control.

Turning to `O=C(CCc1ccc(C(=O)Nc2ccc(C3=NCCCN3)cc2)cc1)Nc1ccc(C2=NCCCN2)cc1`, the T/C by setting is: (dose: 0.37 mg/kg/injection, schedule: Q01DX Z (ip), vehicle: water) 98 % of control; (dose: 0.75 mg/kg/injection, schedule: Q01DX Z (ip), vehicle: water) 108 % of control; (dose: 1.0 mg/kg/injection, schedule: Q01DX Z (ip), vehicle: water) 121 % of control; (dose: 4.0 mg/kg/injection, schedule: Q01DX Z (ip), vehicle: water) 232 % of control; (dose: 8.0 mg/kg/injection, schedule: Q01DX Z (ip), vehicle: water) 270 % of control; (dose: 25.0 mg/kg/injection, schedule: Q01DX Z (oral), vehicle: water) 102 % of control. For the same compound, the T/C was 93 % of control (dose: 50.0 mg/kg/injection, schedule: Q01DX Z (oral), vehicle: water); 93 % of control (dose: 100.0 mg/kg/injection, schedule: Q01DX Z (oral), vehicle: water); 102 % of control (dose: 200.0 mg/kg/injection, schedule: Q01DX Z (oral), vehicle: water).

Turning to `O=c1cc(-c2ccc(S(=O)(=O)F)cc2)[nH]c2ccc([N+](=O)[O-])cc12`, the T/C under setting [4] was 101 % of control; the T/C (dose: 200.0 mg/kg/injection, schedule: Q01DX009 (ip), vehicle: saline) is 101 % of control; the T/C (dose: 400.0 mg/kg/injection, schedule: Q01DX009 (ip), vehicle: saline) is 100 % of control.

For `CC(C)(C)C(O)C1CCC(C(O)C(C)(C)C)S1(=O)=O` (centres undefined), the T/C is 100 % of control under setting [8], 104 % of control under setting [1], 98 % of control under setting [2] and 100 % of control under setting [3].

With `CCOC(=O)c1cc(=O)[nH]c2cc(N)ccc12`, the T/C reads like this: (dose: 100.0 mg/kg/injection, schedule: Q01DX009 (ip), vehicle: Klucel (hydroxypropylcellulose) (HPC)) 86 % of control; (dose: 200.0 mg/kg/injection, schedule: Q01DX009 (ip), vehicle: Klucel (hydroxypropylcellulose) (HPC)) 89 % of control; (dose: 400.0 mg/kg/injection, schedule: Q01DX009 (ip), vehicle: Klucel (hydroxypropylcellulose) (HPC)) 86 % of control.
